Test results reported in patent US20160256452A1 (Develco Pharma Schweiz AG, priority 2015, published 2016).
Counter-ions that a name gives are not always drawn.

Experiments:
[1] = system: loperamide-induced experimental constipation; assay: Oro-cecal transit time (OCT), sulfasalazine/sulfapyridine method, loperamide-induced experimental constipation; assay type: in vivo, human
Method: (§1) The clinical study was performed in 15 German white subjects (11 males, 4 females, age 20-34 years, body mass index 20.3-27.0 kg/ m^2). All subjects were in good health as confirmed by medical histories, physical examination, routine clinical-chemical and hematologic screenings and 12-lead ECG. Three female subjects took hormonal contraceptives regularly and one subject took 300 mg ibuprofen to treat headache 4 days before the administration of study medication. Three subjects were smokers of less than 10 cigarettes per day. 14 subjects drank alcohol occasionally. All were negative in the pre-study screenings for alcohol, drugs, hepatitis-B-virus (HBV) and hepatitis-C-virus (HCV) and human immunodeficiency virus (HIV). Before administration of the study medication, female subjects were screened to be not pregnant and to apply a safe method of contraception. […] All participants provided informed written consent before inclusion into the study. The study was approved by the Independent Ethics Committee of the University Medicine Greifswald and by the German Federal Institute for Drugs and Medical Devices (BfArM) and was registered by EudraCT (2009-014357-32) and ClinicalTrials.gov (NCT01596777).
(§2) Pharmacokinetics of methylnaltrexone and its effects on loperamid-induced experimental constipation were evaluated in a randomized, controlled, five-period, cross-over study with 7 days wash-out between the study periods. […] The time of methylnaltrexone administration was defined to be time zero. For control of intestinal transit times in absence of loperamide and methylnaltrexone, 200 ml of pure apple juice and a methylnaltrexone placebo capsule were given at the respective times (Control). […] Oro-cecal transit time (OCT) was assessed using the sulfasalazine/sulfapyridine method. For that, 500 mg immediate-release sulfasalazine (Azulfidine®, Pharmacia, Germany) were swallowed with 200 ml table water 2 h after administration of the respective methylnaltrexone study medication to avoid competitive interactions during absorption. The time of first appearance of sulfapyridine in serum was defined to be the OCT (cut-off: 100 μg/ml serum). Whole gut transit time (WGT) was evaluated using a radio-opaque marker method. For that, Colon Transit' capsules (Medical Instruments Corporation GmbH, Herford, Germany) were swallowed 24, 12 and 1 h before time zero using the 200 ml apple juice for loperamide dosing. Each capsule contains 10 radio-opaque markers of identical shape (e.g. triangles). A Colon Transit™ batch consists of capsules with markers of different shape (e.g. triangles, circles, rings etc.). Our subjects were willing and compliant for sampling stool in single portions immediately after feeling urge without suppressing defecation using tightly closable containers. Then, the number of radio-opaque markers with identical shape was counted in the stool portions after X-ray imaging (Philips Optimus, Philips Healthcare, Hamburg, Germany) using the Agfa PACS Workstation Impact-Version 5.2 (Agfa-Healthcare, Cologne, Germany). From the time of administration of the 3×10 radio-opaque markers (3 Colon Transit™ capsules) and the time of their appearance in different stool portions could be reliably concluded on WGT as described below. Colon transit time (CTT) was derived from the difference of WGT and OCT.
For supervised pretreatment with loperamide and Colon Transit™ (mouth checking) and for providing stool samples, the subjects visited the study unit. […]

[2] = system: loperamide-induced experimental constipation; assay: Colon transit time (CTT), difference of WGT and OCT, loperamide-induced experimental constipation; assay type: in vivo, human; conditions: for colon transit time after pre-treatment with loperamide: all 15 subjects
Method: as §2
The CTT was evaluated from the difference of WGT and OCT.

[3] = system: loperamide-induced experimental constipation; assay: Whole gut transit time (WGT), radio-opaque marker method, loperamide-induced experimental constipation; assay type: in vivo, human
Method: as §1, with “All” for “The clinical study was performed in 15 German white subjects (11 males, 4 females, age 20-34 years, body mass index 20.3-27.0 kg/ m^2). All”, “study.” for “study. The study was approved by the Independent Ethics Committee of the University Medicine Greifswald and by the German Federal Institute for Drugs and Medical Devices (BfArM) and was registered by EudraCT (2009-014357-32) and ClinicalTrials.gov (NCT01596777).”
as §2, with “Our subjects were willing and compliant for sampling stool in single portions immediately after feeling urge without suppressing defecation using tightly closable containers.” left out
Intestinal transit times: Oro-cecal transit time (OCT) was defined as the time span between oral administration of sulfasalazine (500 mg immediate-release tablet) and the appearance of its metabolite sulfapyridine in serum (cut-off=100 μg/ml) which is generated in the cecum by bacterial azo-reduction. Whole-gut transit time (WGT) was assessed by counting the radio-opaque markers with different shapes (Colon Transit™) in the feces according to formula (1) : […]
with δ1-3 as derived by formula (2):
[formula] • δt =mouth to stool transit time of markers type 1, 2, 3 • xi=number of markers type 1, 2, 3 counted at time ti • n=total number of stools

[4] = cited from earlier work
[5] = 12 LOP-responders, Control versus LOP
[6] = 12 LOP-responders, Control versus LOP, range
[7] = mean ± SD, 12 LOP-responders, loperamide 4 mg 24, 12, 1 h before and 12 h after placebo capsules

CN(C)C(=O)C(CCN1CCC(O)(c2ccc(Cl)cc2)CC1)(c1ccccc1)c1ccccc1 [LOP, loperamide hydrochloride]
prolongation of the OCT (mean ± SD) [1, 5]: 3.08 ± 3.30 h
prolongation of the OCT (range) [1, 6]: 0.50 to 10.5 h
OCT after pre-treatment with loperamide (mean ± SD) ([1]; all 15 subjects): 7.4 ± 3.7 h
OCT after pre-treatment with loperamide (range) ([1]; all 15 subjects, range): 4.0 to 14.0 h
OCT [1, 7]: 7.00 ± 3.55 h
prolongation of the CTT (mean ± SD) [2, 5]: 34.8 ± 18.3 h
prolongation of the CTT (range) [2, 6]: 18.3 to 73.6 h
colon transit time after pre-treatment with loperamide [2]: 66.0 ± 20.9 h
colon transit time after pre-treatment with loperamide ([2]; range): 33.9 to 110 h
CTT [2, 7]: 70.3 ± 19.4 h
WGT extended by (mean ± SD) [3, 5]: 37.8 ± 19.1 h
WGT extended by (range) [3, 6]: 20.6 to 74.1 h
WGT after pre-treatment with loperamide (mean ± SD) ([3]; all 15 subjects): 73.4 ± 19.9 h
WGT elevation versus Control ([3]; all 15 subjects): about 1.8 fold
WGT after pre-treatment with loperamide (range) ([3]; all 15 subjects, range): 45.9 to 114 h
WGT [3, 7]: 77.3 ± 19.6 h

C[N@+]1(CC2CC2)CC[C@]23c4c5ccc(O)c4O[C@H]2C(=O)CC[C@@]3(O)[C@H]1C5 [methylnaltrexone, N-methylnaltrexone bromide]
time of peak concentrations ([4]; following subcutaneous administration): approximately 0.5 hours
crossing of the human blood-brain barrier ([4]; in vivo): does not cross
eliminated without being metabolised ([4]; in vivo): 85 % of the administered dose
proportion that binds to plasma proteins ([4]; in vivo): 11-15%
steady-state volume of distribution ([4]; in vivo): 1.1 L/kg
terminal half-life ([4]; in vivo): about 8 hours
Accumulation ([4]; intravenous administration every 6 hours): has not been observed
excreted in urine ([4]; share of the dose): Approximately half of the dose
